Data published in patent publication US6379655B1, “Photoprotective/cosmetic compositions comprising aminoamidine sunscreens” (Societe l'Oreal S.A., priority 1999, dated 2002).

Tests used:
[1] = UV absorption (sunscreening properties) in ethanol; assay type: physicochemical
Source text: This compound had the following sunscreening properties:
spectral domain where ε is greater than 10,000: 297 to 377 nm.

[2] = photostability protocol for cosmetic UV filters; assay type: physicochemical; settings: protocol of Inter. J. Cosm. Sci., 1996, 18, 167-177
Source text: Loss of 5% after subjecting to the photostability protocol (according to BERST G., GONZPNBACH H., CHRIST R., MARTIN R., DEFLANDRE A., MASCOTTO R. E., JOLLEY J. D. R., LOWELL W., PELZER R., STIEHM T., Inter. J. Cosm.Sci., 1996, 18, 167-177. Proposed protocol for determination of photostability Part I: cosmetic UV filters).

| SMILES | E1% [1] | λmax [1] [nm] | Loss after subjecting to the photostability protocol [2] [%] |
| --- | --- | --- | --- |
| N/C(=N\N=C\c1ccccc1O)c1cnccn1 [Compound 52, N′-[(E)-2-hydroxyphenylmethylidene]pyrazinecarbohydrazonamide] | 1010 | 354.2 | – |
| N/C(=N\N=C\c1ccoc1)c1cnccn1 [Compound 70, N′-[(E)-3-furylmethylidene]-2-pyrazinecarbohydrazonamide] | 832 | 335 | – |
| N/C(=N\N=C\c1cccnc1)c1cnccn1 [Compound 76, N′-[(E)-3-pyridinylmethylidene]-2-pyrazinecarbohydrazonamide] | 1016 | 341 | 5 |
